Measured values: patent US10758534B2 (Vertex Pharmaceuticals Incorporated, priority 2014, dated 2020)

Molecular target: T1, F508del (Homo sapiens, UniProt P13569, DEL508-508)
T1 construct: expressed in transfected cells
Test: Protocol 1: membrane potential optical assay (FLIPR III, voltage sensing dye), identification of potentiator compounds
Assay type: cell-based
Conditions: Table 3, compounds of Table 1
Summary of the method: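 Membrane potential in forskolin-activated, temperature-rescued F508del NIH 3T3 cells is followed with a voltage-sensing dye on FLIPR III. A chloride ion gradient created at the single addition step provides the driving force, after prior compound treatment.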

T1 sequence (P13569 with tags, fused parts or gaps DEL508-508): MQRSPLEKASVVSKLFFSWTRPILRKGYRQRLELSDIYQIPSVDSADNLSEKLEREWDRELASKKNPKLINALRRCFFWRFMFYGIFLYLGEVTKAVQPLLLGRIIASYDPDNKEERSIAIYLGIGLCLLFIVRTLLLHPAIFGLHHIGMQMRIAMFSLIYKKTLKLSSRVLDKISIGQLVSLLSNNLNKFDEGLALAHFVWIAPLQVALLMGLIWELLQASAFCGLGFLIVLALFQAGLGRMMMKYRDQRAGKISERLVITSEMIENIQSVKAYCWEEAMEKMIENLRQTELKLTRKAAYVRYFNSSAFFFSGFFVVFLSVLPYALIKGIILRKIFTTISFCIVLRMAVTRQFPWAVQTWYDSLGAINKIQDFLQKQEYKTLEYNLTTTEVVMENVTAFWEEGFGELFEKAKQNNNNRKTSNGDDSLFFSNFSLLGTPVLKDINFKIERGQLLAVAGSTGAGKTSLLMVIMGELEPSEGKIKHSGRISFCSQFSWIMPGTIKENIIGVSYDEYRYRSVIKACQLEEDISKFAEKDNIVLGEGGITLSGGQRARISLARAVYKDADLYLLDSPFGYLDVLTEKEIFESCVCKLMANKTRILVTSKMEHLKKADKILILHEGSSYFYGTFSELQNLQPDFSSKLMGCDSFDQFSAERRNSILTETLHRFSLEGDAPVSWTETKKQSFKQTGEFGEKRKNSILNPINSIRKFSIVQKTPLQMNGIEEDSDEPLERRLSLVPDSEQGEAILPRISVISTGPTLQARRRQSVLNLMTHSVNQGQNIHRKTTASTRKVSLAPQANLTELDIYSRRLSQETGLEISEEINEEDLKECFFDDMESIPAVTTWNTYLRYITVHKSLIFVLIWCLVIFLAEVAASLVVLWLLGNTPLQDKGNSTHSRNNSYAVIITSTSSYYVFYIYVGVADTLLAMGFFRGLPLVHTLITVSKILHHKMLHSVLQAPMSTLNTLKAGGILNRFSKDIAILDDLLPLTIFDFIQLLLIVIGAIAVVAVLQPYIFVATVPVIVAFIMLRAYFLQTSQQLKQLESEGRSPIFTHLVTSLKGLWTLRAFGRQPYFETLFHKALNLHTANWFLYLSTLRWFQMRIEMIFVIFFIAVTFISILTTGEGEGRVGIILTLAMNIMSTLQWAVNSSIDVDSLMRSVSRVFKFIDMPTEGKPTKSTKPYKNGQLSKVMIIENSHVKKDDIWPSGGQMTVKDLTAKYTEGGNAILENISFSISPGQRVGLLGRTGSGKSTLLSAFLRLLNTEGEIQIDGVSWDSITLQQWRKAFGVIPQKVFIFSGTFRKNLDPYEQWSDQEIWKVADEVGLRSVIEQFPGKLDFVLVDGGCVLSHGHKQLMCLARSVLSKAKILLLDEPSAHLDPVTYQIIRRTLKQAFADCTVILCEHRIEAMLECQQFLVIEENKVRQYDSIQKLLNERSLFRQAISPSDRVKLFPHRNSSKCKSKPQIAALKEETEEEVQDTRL

EC30	SMILES
+++ (“+++” means <3 uM)	Cc1cc(C)c(Oc2nc(C3=CC4CCC3(C)C4(C)C)ccc2C(=O)NS(=O)(=O)c2cccc(N)n2)c(C)c1 (stereo not drawn) [Compound 1410, N-[(6-amino-2-pyridyl)sulfonyl]-6-(4,7,7-trimethyl-3-bicyclo[2.2.1]hept-2-enyl)-2-(2,4,6-trimethylphenoxy)pyridine-3-carboxamide]
+++ (“+++” means <3 uM)	CC(C)Cc1ccn(-c2ccc(C(=O)NS(=O)(=O)c3cccc(N)n3)c(N3C[C@@H](C)CC3(C)C)n2)n1 [Compound 1411, N-[(6-amino-2-pyridyl)sulfonyl]-6-(3-isobutylpyrazol-1-yl)-2-[(4S)-2,2,4-trimethylpyrrolidin-1-yl]pyridine-3-carboxamide]
+++ (“+++” means <3 uM)	Cc1cc(C)c(Oc2nc(C3=COCC3)ccc2C(=O)NS(=O)(=O)c2cccc(N)n2)c(C)c1 [Compound 1412, N-[(6-amino-2-pyridyl)sulfonyl]-6-(2,3-dihydrofuran-4-yl)-2-(2,4,6-trimethylphenoxy)pyridine-3-carboxamide]
+++ (“+++” means <3 uM)	Cc1cc(C)c(Oc2nc(N(C)CC(C)C)c(C)cc2C(=O)NS(=O)(=O)c2cccc(N)n2)c(C)c1 [Compound 1416, N-[(6-amino-2-pyridyl)sulfonyl]-6-[isobutyl(methyl)amino]-5-methyl-2-(2,4,6-trimethylphenoxy)pyridine-3-carboxamide]
++ (“++” means between 3 uM and 10 uM)	Cc1ccc(NCC(C)C)nc1-c1ccc(C(=O)NS(=O)(=O)c2cccc(N)n2)c(N2CC(C)CC2(C)C)n1 (stereo not drawn) [Compound 1417, N-[(6-amino-2-pyridyl)sulfonyl]-6-[6-(isobutylamino)-3-methyl-2-pyridyl]-2-(2,2,4-trimethylpyrrolidin-1-yl)pyridine-3-carboxamide]
+++ (“+++” means <3 uM)	CC1CN(c2nc(C(C)(C)C)c(C#N)cc2C(=O)NS(=O)(=O)c2cccc(N)n2)C(C)(C)C1 (stereo not drawn) [Compound 1419, N-[(6-amino-2-pyridyl)sulfonyl]-6-tert-butyl-5-cyano-2-(2,2,4-trimethylpyrrolidin-1-yl)pyridine-3-carboxamide]
++ (“++” means between 3 uM and 10 uM)	Cc1ccc(C(=O)NS(=O)(=O)c2cccc(N)n2)c(N2C[C@@H](C)CC2(C)C)n1 [Compound 1420, N-[(6-amino-2-pyridyl)sulfonyl]-6-methyl-2-[(4S)-2,2,4-trimethylpyrrolidin-1-yl]pyridine-3-carboxamide]
+++ (“+++” means <3 uM)	C[C@@H]1CN(c2nc(-c3cc(F)cc(OCC(C)(C)O)c3)ccc2C(=O)NS(=O)(=O)c2cccc(N)n2)C(C)(C)C1 [Compound 1424, N-[(6-amino-2-pyridyl)sulfonyl]-6-[3-fluoro-5-(2-hydroxy-2-methyl-propoxy)phenyl]-2-[(4S)-2,2,4-trimethylpyrrolidin-1-yl]pyridine-3-carboxamide]
+++ (“+++” means <3 uM)	Cc1cc(C)c(Oc2nc(C3CC(C)(C)CCC3=O)ccc2C(=O)NS(=O)(=O)c2cccc(N)n2)c(C)c1 (stereo not drawn) [Compound 1427, N-[(6-amino-2-pyridyl)sulfonyl]-6-(5,5-dimethyl-2-oxo-cyclohexyl)-2-(2,4,6-trimethylphenoxy)pyridine-3-carboxamide]

Further lines, the compound ahead of its results:

SMILES	EC30
Cc1cc(OCC(C)C)nn1-c1ccc(C(=O)NS(=O)(=O)c2cccc(N)n2)c(N2C[C@@H](C)CC2(C)C)n1 [Compound 1407, N-[(6-amino-2-pyridyl)sulfonyl]-6-(3-isobutoxy-5-methyl-pyrazol-1-yl)-2-[(4S)-2,2,4-trimethylpyrrolidin-1-yl]pyridine-3-carboxamide]	+++ (“+++” means <3 uM)
CCOc1cccc2c1CN(Cc1ccccc1C)C2(C)C(=O)NS(=O)(=O)c1cccc(N)n1 (stereo not drawn) [Compound 1408, N-[(6-amino-2-pyridyl)sulfonyl]-4-ethoxy-1-methyl-2-(o-tolylmethyl)isoindoline-1-carboxamide]	+++ (“+++” means <3 uM)
CC(C)COc1cc(F)cc(-c2nc(N3C[C@@H](C)CC3(C)C)ccc2C(=O)NS(=O)(=O)c2cccc(N)n2)c1 [Compound 1409, N-[(6-amino-2-pyridyl)sulfonyl]-2-(3-fluoro-5-isobutoxy-phenyl)-6-[(4S)-2,2,4-trimethylpyrrolidin-1-yl]pyridine-3-carboxamide]	+++ (“+++” means <3 uM)
CCOc1cccc2c1CN(Cc1c(C)cc(C)cc1C)C2(C)C(=O)NS(=O)(=O)c1ccc(N)nc1 (stereo not drawn) [Compound 1413, N-[(6-amino-3-pyridyl)sulfonyl]-4-ethoxy-1-methyl-2-[(2,4,6-trimethylphenyl)methyl]isoindoline-1-carboxamide]	+++ (“+++” means <3 uM)
CC(C)COc1cc(F)cc(-c2ccc(C(=O)NS(=O)(=O)N3CCCC(N(C)C)C3)c(N3CC(C)CC3(C)C)n2)c1 (stereo not drawn) [Compound 1414, N—[[3-(dimethylamino)-1-piperidyl]sulfonyl]-6-(3-fluoro-5-isobutoxy-phenyl)-2-(2,2,4-trimethylpyrrolidin-1-yl)pyridine-3-carboxamide]	+++ (“+++” means <3 uM)
CCOc1cccc2c1CN(Cc1c(C)cc(C)cc1C)C2(C)C(=O)NS(=O)(=O)c1cccc(NC(C)=O)n1 (stereo not drawn) [Compound 1415, N-[(6-acetamido-2-pyridyl)sulfonyl]-4-ethoxy-1-methyl-2-[(2,4,6-trimethylphenyl)methyl]isoindoline-1-carboxamide]	+++ (“+++” means <3 uM)
CC(C)COc1cc(F)cc(-c2ccc(C(=O)NS(=O)(=O)c3cccc(N)n3)c(OCCC3CCC3)n2)c1 [Compound 1418, N-[(6-amino-2-pyridyl)sulfonyl]-2-(2-cyclobutylethoxy)-6-(3-fluoro-5-isobutoxy-phenyl)pyridine-3-carboxamide]	+++ (“+++” means <3 uM)
CCOc1cccc2c1CN(Cc1cc(F)cc(OC)c1)C2(C)C(=O)NS(=O)(=O)c1cccc(N)n1 (stereo not drawn) [Compound 1421, N-[(6-amino-2-pyridyl)sulfonyl]-4-ethoxy-2-[(3-fluoro-5-methoxy-phenyl)methyl]-1-methyl-isoindoline-1-carboxamide]	+++ (“+++” means <3 uM)
CCOc1cccc2c1CN(Cc1c(C)cc(C)cc1C)C2(C)C(=O)NS(=O)(=O)c1ccc2c(c1)CCN2 (stereo not drawn) [Compound 1422, 4-ethoxy-N-indolin-5-ylsulfonyl-1-methyl-2-[(2,4,6-trimethylphenyl)methyl]isoindoline-1-carboxamide]	+++ (“+++” means <3 uM)
C=C(C)c1ccc(C(=O)NS(=O)(=O)c2cccc(N)n2)c(N2C[C@@H](C)CC2(C)C)n1 [Compound 1423, N-[(6-amino-2-pyridyl)sulfonyl]-6-isopropenyl-2-[(4S)-2,2,4-trimethylpyrrolidin-1-yl]pyridine-3-carboxamide]	+++ (“+++” means <3 uM)
CCOc1cccc2c1CN(Cc1c(C)cc(C)cc1C)C2(C)C(=O)NS(=O)(=O)c1cccc(F)c1 (stereo not drawn) [Compound 1425, 4-ethoxy-N-(3-fluorophenyl)sulfonyl-1-methyl-2-[(2,4,6-trimethylphenyl)methyl]isoindoline-1-carboxamide]	+++ (“+++” means <3 uM)
CC(C)COc1cc(F)cc(-c2ccc(C(=O)NS(=O)(=O)c3cccc(N)n3)c(OCCc3ccccc3)n2)c1 [Compound 1426, N-[(6-amino-2-pyridyl)sulfonyl]-6-(3-fluoro-5-isobutoxy-phenyl)-2-phenethyloxy-pyridine-3-carboxamide]	+++ (“+++” means <3 uM)
